In patent US9938256B2, “Annelated benzamides” (Boehringer Ingelheim International GmbH, priority 2015, dated 2018):

Biological target: T1, ENaC (Epithelial Sodium Channel) (Mus musculus, UniProt Q61180+Q9WU38+Q9WU39)
T1 sequence (Q61180 1-699): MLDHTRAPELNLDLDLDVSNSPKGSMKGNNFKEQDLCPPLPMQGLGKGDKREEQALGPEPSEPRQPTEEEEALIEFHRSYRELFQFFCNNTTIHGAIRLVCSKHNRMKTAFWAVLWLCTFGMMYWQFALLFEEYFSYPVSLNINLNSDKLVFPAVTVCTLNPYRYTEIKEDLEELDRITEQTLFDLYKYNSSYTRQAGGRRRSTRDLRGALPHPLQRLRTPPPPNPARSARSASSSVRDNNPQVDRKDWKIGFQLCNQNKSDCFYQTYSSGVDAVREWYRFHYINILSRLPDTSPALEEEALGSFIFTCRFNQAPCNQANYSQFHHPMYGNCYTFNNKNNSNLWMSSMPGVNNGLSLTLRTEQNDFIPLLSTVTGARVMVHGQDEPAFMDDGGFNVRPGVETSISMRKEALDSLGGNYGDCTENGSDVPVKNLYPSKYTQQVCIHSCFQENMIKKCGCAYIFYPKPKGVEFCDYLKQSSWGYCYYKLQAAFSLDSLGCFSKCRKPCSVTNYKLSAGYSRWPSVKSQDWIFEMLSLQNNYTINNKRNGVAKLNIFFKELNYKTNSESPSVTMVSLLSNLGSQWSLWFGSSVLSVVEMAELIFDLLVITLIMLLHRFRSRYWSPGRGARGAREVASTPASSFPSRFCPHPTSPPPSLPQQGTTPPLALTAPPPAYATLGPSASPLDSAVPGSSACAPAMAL
T1 sequence (Q9WU38 1-638): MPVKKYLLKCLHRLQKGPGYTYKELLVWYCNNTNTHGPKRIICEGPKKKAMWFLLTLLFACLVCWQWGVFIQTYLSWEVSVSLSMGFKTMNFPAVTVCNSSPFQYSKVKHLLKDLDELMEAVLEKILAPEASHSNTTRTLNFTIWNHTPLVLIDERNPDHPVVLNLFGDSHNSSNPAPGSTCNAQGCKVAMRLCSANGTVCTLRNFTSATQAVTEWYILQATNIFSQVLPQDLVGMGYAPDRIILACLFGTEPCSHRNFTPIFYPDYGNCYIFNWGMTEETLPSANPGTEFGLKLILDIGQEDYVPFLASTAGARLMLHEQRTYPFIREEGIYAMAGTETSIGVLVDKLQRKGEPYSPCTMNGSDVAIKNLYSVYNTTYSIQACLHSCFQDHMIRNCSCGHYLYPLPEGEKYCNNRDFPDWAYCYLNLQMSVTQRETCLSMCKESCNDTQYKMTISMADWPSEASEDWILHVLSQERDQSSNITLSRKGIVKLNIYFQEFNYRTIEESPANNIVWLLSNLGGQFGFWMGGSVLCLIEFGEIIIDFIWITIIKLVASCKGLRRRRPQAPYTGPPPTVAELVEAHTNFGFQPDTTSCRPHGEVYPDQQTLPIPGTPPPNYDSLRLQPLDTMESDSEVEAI
T1 sequence (Q9WU39 1-655): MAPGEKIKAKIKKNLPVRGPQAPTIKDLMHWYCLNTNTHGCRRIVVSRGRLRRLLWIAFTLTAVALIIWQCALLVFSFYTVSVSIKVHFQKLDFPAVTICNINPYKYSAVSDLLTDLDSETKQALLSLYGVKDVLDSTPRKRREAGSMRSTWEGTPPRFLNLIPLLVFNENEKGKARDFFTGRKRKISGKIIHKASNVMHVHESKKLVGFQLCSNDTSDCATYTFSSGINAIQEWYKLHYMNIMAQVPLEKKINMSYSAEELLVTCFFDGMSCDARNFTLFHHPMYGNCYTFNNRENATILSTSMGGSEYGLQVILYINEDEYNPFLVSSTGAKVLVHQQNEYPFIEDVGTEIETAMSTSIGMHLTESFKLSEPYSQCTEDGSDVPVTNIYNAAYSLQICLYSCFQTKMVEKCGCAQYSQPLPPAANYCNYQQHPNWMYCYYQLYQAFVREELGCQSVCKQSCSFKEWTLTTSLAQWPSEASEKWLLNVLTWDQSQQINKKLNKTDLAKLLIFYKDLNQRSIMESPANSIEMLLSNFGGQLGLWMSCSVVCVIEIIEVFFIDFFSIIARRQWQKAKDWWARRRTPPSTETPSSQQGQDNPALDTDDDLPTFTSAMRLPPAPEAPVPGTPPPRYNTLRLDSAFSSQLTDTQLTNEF
Experiment: Ussing Chamber assay (amiloride sensitive short circuit current in M-1 cells)
Format: cell-based
Details: Mouse kidney M-1 cells, apical administration, 37° C.
Method: The IC50 values of the example compounds given above were determined in the Ussing Chamber assay. Ussing Chamber: Mouse kidney M-1 cells were cultivated in DMEM containing 5% FCS and 5 μM dexamethasone for 10 to 12 days on polyester transwell filters. Filters were inserted into a teflon-coated well-plate which fit into the ussing chamber system. Prior to measurement the medium of M-1 cells was replaced with Caco-2 transport buffer (Invitrogen, Germany). During measurements, the Ussing chamber temperature was kept at 37° C. Short circuit currents (I_sc) were measured in the voltage-clamp mode with the software package Lab View for data acquisition and analysis. The transepithelial electrical resistance (TEER) was determined by the application of voltage steps of ±5 mV every 5 sec. Compounds were administered at a final concentration of 3 μM or at increasing concentrations (1-3-10 μM) to the apical solution. At the end of each experiment the amiloride sensitive I_SC was measured by adding 3 μM amiloride to the apical compartment. Results are expressed as inhibition in percent of the amiloride effect or as IC50. With the example compounds given above, the following IC50 values were determined in the Ussing Chamber assay: […]

With `CCn1c(CNC(=O)c2nc(Cl)cnc2N)[n+](CC)c2ccc(C(=O)NCCCNC)cc21` [Example 1.04] the IC50 was 3 nM.
Work on `CCn1c(CNC(=O)c2nc(Cl)cnc2N)[n+](CC)c2ccc(C(=O)NCCNC)cc21` [Example 1.08] yielded an IC50 of 6 nM.
`CCn1c(CNC(=O)c2nc(Cl)cnc2N)[n+](CC)c2ccc(C(=O)N(C)CCNC)cc21` [Example 1.14] gave an IC50 of 4 nM.
For `CCn1c(CNC(=O)c2nc(Cl)cnc2N)[n+](CC)c2ccc(C(=O)N(CCN)CCN)cc21` [Example 1.13], the IC50 was 7 nM.
For `CCn1c(CNC(=O)c2nc(Cl)cnc2N)[n+](CC)c2ccc(C(=O)N(C)CCCNC)cc21` [Example 1.02], the IC50 was 4 nM.
In the case of `CCn1c(CNC(=O)c2nc(Cl)cnc2N)[n+](CC)c2cc(C(=O)NCCOCP(C)(C)=O)ccc21` [Example 1.22], the IC50 is reported as 13 nM.
Work on `CCn1c(CNC(=O)c2nc(Cl)cnc2N)[n+](CC)c2cc(C(=O)N3CCN(CP(C)(C)=O)CC3)ccc21` [Example 1.16] yielded an IC50 of 12 nM.
For `CCn1c(CNC(=O)c2nc(Cl)cnc2N)[n+](CC)c2ccc(C(=O)N3CCN(C)CC3)cc21` [Example 1.07], the IC50 was 5 nM.
Compound `CCn1c(CNC(=O)c2nc(Cl)cnc2N)[n+](CC)c2ccc(C(=O)NC[C@H](O)[C@@H](O)[C@H](O)[C@H](O)CO)cc21` [Example 1.09] has an IC50 of 6 nM.
`CCCCN1CCN(C(=O)c2ccc3c(c2)[n+](CC)c(CNC(=O)c2nc(Cl)cnc2N)n3CC)CC1` [Example 1.18] was tested, and the IC50 was 5 nM.
Work on `CCn1c(CNC(=O)c2nc(Cl)cnc2N)[n+](CC)c2ccc(C(=O)NCCN3CCOCC3)cc21` [Example 1.03] yielded an IC50 of 7 nM.
Compound `CCn1c(CNC(=O)c2nc(Cl)cnc2N)[n+](CC)c2ccc(C(=O)N(CCN)CC(C)C)cc21` [Example 1.05] has an IC50 of 8 nM.
Work on `CCn1c(CNC(=O)c2nc(Cl)cnc2N)[n+](CC)c2ccc(C(=O)N(C)CCCN(C)C)cc21` [Example 1.17] yielded an IC50 of 7 nM.
`CCn1c(CNC(=O)c2nc(Cl)cnc2N)[n+](CC)c2ccc(C(=O)NCCCN)cc21` [Example 1.10] showed an IC50 of 4 nM.
With `CCn1c(CNC(=O)c2nc(Cl)cnc2N)[n+](CC)c2ccc(C(=O)NCCN(C)C)cc21` [Example 1.06] the IC50 was 4 nM.
Work on `CCn1c(CNC(=O)c2nc(Cl)cnc2N)[n+](CC)c2ccc(C(=O)N3CCNCC3)cc21` [Example 1.01] yielded an IC50 of 7 nM.
In the case of `CCn1c(CNC(=O)c2nc(Cl)cnc2N)[n+](CC)c2ccc(C(=O)N3CCC(NC(=O)CN(C)C)CC3)cc21` [Example 1.11], the IC50 is reported as 5 nM.
Work on `CCn1c(CNC(=O)c2nc(Cl)cnc2N)[n+](CC)c2ccc(C(=O)N3CCCNCC3)cc21` [Example 1.19] yielded an IC50 of 4 nM.
`CCn1c(CNC(=O)c2nc(Cl)cnc2N)[n+](CC)c2ccc(C(=O)N(C)CCN3CCOCC3)cc21` [Example 1.15] gave an IC50 of 6 nM.
Compound `CCn1c(CNC(=O)c2nc(Cl)cnc2N)[n+](CC)c2ccc(C(=O)N3CCC(NC(=O)CN)CC3)cc21` [Example 1.21] has an IC50 of 5 nM.
`CCn1c(CNC(=O)c2nc(Cl)cnc2N)[n+](CC)c2cc(C(=O)N3CCC(N(C)C)CC3)ccc21` [Example 1.12] was tested, and the IC50 was 4 nM.
For `CCn1c(CNC(=O)c2nc(Cl)cnc2N)[n+](CC)c2ccc(C(=O)N(C)CCN(C)C)cc21` [Example 1.20], the IC50 was 6 nM.
